Reference: ChEMBL document CHEMBL5338751, “Discovery of the First-in-Class Intestinal Restricted FXR and FABP1 Dual Modulator ZLY28 for the Treatment of Nonalcoholic Fatty Liver Disease” (J Med Chem, 2023)
Calls of active or inactive are those of the source. The calls are words filed in the database; no cut-off is given here.

Legend:
Bile acid receptor [1] = target: T1, Bile acid receptor (Homo sapiens, UniProt Q96RI1); experiment: Agonist activity at FXR-LBD (unknown origin) using fluorescein-coactivator peptide incubated for 3 hrs by TR-FRET assay
T1 sequence (Q96RI1 whole entry): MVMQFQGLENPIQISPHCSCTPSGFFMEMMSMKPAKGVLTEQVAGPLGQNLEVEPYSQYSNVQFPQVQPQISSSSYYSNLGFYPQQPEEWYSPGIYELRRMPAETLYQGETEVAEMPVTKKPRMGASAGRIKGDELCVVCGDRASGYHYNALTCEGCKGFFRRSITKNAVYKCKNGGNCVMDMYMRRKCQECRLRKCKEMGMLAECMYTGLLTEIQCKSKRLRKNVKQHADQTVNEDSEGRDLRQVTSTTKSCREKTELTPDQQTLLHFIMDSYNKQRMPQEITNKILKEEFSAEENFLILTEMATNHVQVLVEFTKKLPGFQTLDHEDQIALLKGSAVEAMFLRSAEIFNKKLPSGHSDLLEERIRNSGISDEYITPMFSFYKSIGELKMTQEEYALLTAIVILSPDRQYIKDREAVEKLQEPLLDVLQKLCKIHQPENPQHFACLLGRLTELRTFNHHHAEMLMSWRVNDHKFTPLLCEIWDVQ

[2] = target: T2, Fatty acid-binding protein, liver (Homo sapiens, UniProt P07148); experiment: Displacement of 8-anilino-1-naphthalene-sulfonic acid from FABP1 (unknown origin) incubated for 3 mins by fluorescence based assay
T2 sequence (P07148 whole entry): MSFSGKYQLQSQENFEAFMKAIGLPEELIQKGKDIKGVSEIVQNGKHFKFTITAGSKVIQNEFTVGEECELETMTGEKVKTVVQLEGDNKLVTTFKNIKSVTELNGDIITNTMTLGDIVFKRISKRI

[3] = Metabolic stability in mouse liver microsomes assessed as parent compound remaining incubated for 1 hr by LC-MS analysis; type: ADME, Microsome; settings: read-out: Stability
[4] = Metabolic stability in Sprague-Dawley rat liver microsomes assessed as parent compound remaining incubated for 1 hr by LC-MS analysis; type: ADME, Microsome; settings: read-out: Stability
Mus musculus [5] = experiment: Anti-NASH activity in western diet and CCl4-induced nonalcoholic steatohepatitis C57BL/6 mouse assessed as alleviation of hepatic steatosis at 20 mg/kg, po administered for 12 weeks starting from week 8 and change in dose for every 5 days; type: functional, organism-based; settings: time 4.0 weeks
Mus musculus [6] = experiment: Anti-NASH activity in western diet and CCl4-induced nonalcoholic steatohepatitis C57BL/6 mouse assessed as alleviation of lobular inflammation at 20 mg/kg, po administered for 12 weeks starting from week 8 and change in dose for every 5 days; type: functional, organism-based; settings: time 4.0 weeks
Bile acid receptor [7] = target: T1, Bile acid receptor; experiment: Agonist activity at FXR (unknown origin) expressed in human HepG2 cells co-transfected with human RXR assessed as luciferase activity incubated for 24 hrs by cell-based luciferase assay
[8] = target: T3, Fatty acid-binding protein, liver (Homo sapiens) (UniProt P07148); experiment: Displacement of 8-anilino-1-naphthalene-sulfonic acid from FABP1 (unknown origin) at 10 uM incubated for 3 mins by fluorescence based assay relative to control
T3 sequence (whole entry): T2 sequence (P07148 whole entry)

[9] = target: Oxysterols receptor LXR-alpha (Homo sapiens, UniProt Q13133); experiment: Inhibition of Gal-DBD and NHRLBD fused LXRalpha (unknown origin) transfected in African green monkey CV-1 cells by luciferase assay; type: cell-based
Sequence of Oxysterols receptor LXR-alpha (Q13133 whole entry, the tested form may be a part): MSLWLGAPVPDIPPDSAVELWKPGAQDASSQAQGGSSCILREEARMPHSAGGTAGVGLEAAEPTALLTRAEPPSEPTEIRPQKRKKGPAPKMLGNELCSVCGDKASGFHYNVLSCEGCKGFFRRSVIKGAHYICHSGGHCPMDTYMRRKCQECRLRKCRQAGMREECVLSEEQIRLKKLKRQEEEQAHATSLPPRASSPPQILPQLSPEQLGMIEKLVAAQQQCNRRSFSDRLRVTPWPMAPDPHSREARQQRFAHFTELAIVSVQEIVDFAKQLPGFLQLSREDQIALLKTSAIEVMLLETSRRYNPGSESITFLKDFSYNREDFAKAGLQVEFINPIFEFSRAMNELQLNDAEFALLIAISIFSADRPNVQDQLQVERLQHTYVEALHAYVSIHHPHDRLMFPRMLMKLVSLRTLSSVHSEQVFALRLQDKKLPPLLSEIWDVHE

[10] = target: Oxysterols receptor LXR-beta (Homo sapiens, UniProt P55055); experiment: Inhibition of Gal-DBD and NHRLBD fused LXRbeta (unknown origin) transfected in African green monkey CV-1 cells by luciferase assay; type: cell-based
Sequence of Oxysterols receptor LXR-beta (P55055 whole entry, the tested form may be a part): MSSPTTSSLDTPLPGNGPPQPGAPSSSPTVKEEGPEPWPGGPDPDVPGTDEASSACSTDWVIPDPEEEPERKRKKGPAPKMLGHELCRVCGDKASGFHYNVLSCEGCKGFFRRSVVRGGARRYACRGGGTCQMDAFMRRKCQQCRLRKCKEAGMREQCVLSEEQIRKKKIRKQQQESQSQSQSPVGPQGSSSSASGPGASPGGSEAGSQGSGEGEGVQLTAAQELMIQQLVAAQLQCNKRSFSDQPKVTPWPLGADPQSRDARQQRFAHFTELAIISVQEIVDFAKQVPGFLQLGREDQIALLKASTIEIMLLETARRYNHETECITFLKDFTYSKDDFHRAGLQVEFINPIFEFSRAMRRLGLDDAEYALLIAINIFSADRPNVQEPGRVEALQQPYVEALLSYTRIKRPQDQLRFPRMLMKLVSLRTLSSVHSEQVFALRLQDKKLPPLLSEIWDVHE

[11] = target: Thyroid hormone receptor beta (Homo sapiens, UniProt P10828); experiment: Activation of pGAL4 fused THRbeta LBD (unknown origin) transfected in HEK293 cells cotransfected with pG5-Luc and pRL-TK incubated for 24 hrs by Renilla/Firefly based dual-glo luciferase assay; type: cell-based
Sequence of Thyroid hormone receptor beta (P10828 whole entry, the tested form may be a part): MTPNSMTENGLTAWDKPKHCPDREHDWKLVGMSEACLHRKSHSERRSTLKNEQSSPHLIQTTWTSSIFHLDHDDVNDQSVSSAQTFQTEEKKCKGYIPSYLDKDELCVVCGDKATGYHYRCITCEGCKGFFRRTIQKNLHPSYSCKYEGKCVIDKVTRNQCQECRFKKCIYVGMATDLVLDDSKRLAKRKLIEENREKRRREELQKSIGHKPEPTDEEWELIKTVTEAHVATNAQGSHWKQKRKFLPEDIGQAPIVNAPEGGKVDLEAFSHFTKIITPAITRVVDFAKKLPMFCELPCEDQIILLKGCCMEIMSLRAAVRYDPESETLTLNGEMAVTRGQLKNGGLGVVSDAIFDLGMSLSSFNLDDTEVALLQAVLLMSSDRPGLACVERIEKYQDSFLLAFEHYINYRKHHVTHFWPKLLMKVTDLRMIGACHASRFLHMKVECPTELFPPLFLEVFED

[12] = target: T4, Peroxisome proliferator-activated receptor alpha (Homo sapiens, UniProt Q07869); experiment: Inhibition of pBIND-PPARalpha (unknown origin) transfected in HepG2 cells incubated for 18 hrs in presence of […] by dual luciferase reporter assay; type: cell-based
T4 sequence (Q07869 whole entry): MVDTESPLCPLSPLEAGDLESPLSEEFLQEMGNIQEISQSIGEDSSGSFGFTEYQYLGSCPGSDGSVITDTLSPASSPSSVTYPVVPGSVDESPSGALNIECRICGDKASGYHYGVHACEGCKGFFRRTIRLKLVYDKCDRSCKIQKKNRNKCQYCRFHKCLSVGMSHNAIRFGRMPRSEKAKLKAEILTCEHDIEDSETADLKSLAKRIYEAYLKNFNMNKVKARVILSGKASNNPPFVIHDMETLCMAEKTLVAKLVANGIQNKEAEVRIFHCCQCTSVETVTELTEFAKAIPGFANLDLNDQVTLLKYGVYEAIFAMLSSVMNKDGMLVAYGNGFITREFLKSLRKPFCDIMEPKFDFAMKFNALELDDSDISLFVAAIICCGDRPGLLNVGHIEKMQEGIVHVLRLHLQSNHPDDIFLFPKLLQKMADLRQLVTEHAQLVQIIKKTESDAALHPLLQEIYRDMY

[13] = Inhibition of PPARbeta/delta (unknown origin) transfected in HepG2 cells incubated for 18 hrs in presence of GW0742 by dual luciferase reporter assay; settings: Homo sapiens, HepG2, 18 h
[14] = target: T5, Peroxisome proliferator-activated receptor gamma (Homo sapiens, UniProt P37231); experiment: Inhibition of PPARgamma (unknown origin) transfected in HEK293 cells incubated for 18 hrs in presence of rosiglitazone by dual luciferase reporter assay; type: cell-based
T5 sequence (P37231 whole entry): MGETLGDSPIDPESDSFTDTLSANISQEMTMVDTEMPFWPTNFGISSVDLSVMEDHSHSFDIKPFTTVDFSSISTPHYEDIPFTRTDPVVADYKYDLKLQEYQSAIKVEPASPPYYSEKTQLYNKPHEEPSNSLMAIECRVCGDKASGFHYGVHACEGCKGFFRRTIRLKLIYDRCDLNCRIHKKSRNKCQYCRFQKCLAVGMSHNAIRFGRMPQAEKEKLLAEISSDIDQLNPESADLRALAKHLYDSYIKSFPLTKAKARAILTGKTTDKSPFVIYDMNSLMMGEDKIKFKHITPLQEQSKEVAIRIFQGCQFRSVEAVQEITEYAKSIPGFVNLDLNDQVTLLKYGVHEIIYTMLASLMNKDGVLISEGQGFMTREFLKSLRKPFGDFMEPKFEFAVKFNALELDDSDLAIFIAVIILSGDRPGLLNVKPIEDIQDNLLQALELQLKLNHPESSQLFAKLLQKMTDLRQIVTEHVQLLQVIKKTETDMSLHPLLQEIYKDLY

[15] = target: G-protein coupled bile acid receptor 1 (Homo sapiens, UniProt Q8TDU6); experiment: Activation of TGR5 (unknown origin) transfected in human NCI-H716 cells assessed as increase in cAMP production incubated for 24 hrs by HTR-FRET assay; type: functional, cell-based
Sequence of G-protein coupled bile acid receptor 1 (Q8TDU6 whole entry): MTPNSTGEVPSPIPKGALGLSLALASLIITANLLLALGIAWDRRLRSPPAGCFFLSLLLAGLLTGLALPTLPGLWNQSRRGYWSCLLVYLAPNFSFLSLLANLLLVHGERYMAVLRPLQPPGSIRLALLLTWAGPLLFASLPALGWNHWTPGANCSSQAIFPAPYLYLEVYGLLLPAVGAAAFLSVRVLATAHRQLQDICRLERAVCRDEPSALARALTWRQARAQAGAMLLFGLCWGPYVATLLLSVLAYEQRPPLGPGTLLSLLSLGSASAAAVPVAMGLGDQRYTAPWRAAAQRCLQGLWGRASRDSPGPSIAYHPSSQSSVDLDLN

[16] = Metabolic stability in Beagle dog liver microsomes assessed as parent compound remaining incubated for 1 hr by LC-MS analysis; type: ADME, Canis lupus familiaris, Microsome; settings: read-out: Stability
[17] = Metabolic stability in rhesus monkey liver microsomes assessed as parent compound remaining incubated for 1 hr by LC-MS analysis; type: ADME, Macaca mulatta, Microsome; settings: read-out: Stability
[18] = Metabolic stability in human liver microsomes assessed as parent compound remaining incubated for 1 hr by LC-MS analysis; type: ADME, Microsome; settings: read-out: Stability
[19] = target: Retinoic acid receptor gamma (Homo sapiens, UniProt P13631); experiment: Activation of Gal-DBD and NHRLBD fused RARgamma (unknown origin) transfected in African green monkey CV-1 cells by luciferase reporter assay; type: cell-based
[20] = target: Retinoic acid receptor alpha (Homo sapiens, UniProt P10276); experiment: Activation of Gal-DBD and NHRLBD fused RARalpha (unknown origin) transfected in African green monkey CV-1 cells by luciferase reporter assay; type: cell-based
Progesterone receptor = Progesterone receptor (Homo sapiens, UniProt P06401); experiment: Activation of Gal-DBD and NHRLBD fused PR (unknown origin) transfected in African green monkey CV-1 cells by luciferase reporter assay; type: cell-based
Sequence of Progesterone receptor (P06401 whole entry, the tested form may be a part): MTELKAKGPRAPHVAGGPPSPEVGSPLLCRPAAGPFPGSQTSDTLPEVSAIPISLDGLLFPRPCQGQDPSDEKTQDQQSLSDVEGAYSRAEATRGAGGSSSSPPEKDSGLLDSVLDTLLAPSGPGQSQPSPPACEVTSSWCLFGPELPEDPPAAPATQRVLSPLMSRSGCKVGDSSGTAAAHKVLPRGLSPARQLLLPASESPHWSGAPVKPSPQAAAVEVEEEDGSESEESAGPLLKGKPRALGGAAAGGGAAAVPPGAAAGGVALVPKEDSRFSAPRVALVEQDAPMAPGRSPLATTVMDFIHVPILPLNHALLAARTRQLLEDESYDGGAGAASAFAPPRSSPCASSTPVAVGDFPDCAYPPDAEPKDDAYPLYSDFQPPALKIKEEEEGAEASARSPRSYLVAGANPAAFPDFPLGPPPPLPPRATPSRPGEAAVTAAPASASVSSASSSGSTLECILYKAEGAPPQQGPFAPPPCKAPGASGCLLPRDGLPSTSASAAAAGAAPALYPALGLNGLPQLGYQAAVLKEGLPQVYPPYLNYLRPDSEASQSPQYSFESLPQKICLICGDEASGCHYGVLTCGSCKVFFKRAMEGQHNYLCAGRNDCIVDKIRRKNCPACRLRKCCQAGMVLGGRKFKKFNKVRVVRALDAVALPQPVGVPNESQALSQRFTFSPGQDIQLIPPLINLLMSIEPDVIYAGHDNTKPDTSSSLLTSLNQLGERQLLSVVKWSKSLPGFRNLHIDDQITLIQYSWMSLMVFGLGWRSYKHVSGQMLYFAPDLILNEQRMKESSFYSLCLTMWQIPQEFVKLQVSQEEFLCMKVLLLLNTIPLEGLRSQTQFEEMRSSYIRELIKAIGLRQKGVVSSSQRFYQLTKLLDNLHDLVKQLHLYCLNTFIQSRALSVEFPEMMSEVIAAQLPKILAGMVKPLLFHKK

Androgen receptor = Androgen receptor (Homo sapiens, UniProt P10275); experiment: Activation of Gal-DBD and NHRLBD fused AR (unknown origin) transfected in African green monkey CV-1 cells by luciferase reporter assay; type: cell-based
Sequence of Androgen receptor (P10275 whole entry, the tested form may be a part): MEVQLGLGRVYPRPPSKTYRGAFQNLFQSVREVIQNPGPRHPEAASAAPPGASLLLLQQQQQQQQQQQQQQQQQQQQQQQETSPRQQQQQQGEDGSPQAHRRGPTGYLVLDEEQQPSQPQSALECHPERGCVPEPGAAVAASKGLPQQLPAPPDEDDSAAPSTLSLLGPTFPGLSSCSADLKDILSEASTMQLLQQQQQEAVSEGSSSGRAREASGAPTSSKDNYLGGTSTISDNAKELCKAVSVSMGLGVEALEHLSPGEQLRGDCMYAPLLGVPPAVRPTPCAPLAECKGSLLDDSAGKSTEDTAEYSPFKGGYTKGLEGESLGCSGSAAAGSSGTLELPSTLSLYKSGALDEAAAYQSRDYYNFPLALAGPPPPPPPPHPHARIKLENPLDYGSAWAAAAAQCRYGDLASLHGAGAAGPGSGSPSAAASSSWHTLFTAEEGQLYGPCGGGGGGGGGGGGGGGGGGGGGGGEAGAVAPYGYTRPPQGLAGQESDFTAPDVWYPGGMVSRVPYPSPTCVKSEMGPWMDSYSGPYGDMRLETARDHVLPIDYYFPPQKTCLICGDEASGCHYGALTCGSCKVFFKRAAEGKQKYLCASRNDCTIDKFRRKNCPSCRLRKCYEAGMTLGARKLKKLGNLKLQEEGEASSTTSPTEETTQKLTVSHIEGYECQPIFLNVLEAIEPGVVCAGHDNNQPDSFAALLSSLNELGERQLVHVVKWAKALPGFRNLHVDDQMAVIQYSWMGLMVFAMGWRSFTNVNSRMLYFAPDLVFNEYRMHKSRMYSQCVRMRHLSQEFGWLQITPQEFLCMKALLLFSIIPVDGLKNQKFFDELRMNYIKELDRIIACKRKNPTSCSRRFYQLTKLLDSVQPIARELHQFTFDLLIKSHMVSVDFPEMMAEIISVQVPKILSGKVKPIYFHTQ

[21] = target: Mineralocorticoid receptor (Homo sapiens, UniProt P08235); experiment: Activation of Gal-DBD and NHRLBD fused MR (unknown origin) transfected in African green monkey CV-1 cells by luciferase reporter assay; type: cell-based
Sequence of Mineralocorticoid receptor (P08235 whole entry, the tested form may be a part): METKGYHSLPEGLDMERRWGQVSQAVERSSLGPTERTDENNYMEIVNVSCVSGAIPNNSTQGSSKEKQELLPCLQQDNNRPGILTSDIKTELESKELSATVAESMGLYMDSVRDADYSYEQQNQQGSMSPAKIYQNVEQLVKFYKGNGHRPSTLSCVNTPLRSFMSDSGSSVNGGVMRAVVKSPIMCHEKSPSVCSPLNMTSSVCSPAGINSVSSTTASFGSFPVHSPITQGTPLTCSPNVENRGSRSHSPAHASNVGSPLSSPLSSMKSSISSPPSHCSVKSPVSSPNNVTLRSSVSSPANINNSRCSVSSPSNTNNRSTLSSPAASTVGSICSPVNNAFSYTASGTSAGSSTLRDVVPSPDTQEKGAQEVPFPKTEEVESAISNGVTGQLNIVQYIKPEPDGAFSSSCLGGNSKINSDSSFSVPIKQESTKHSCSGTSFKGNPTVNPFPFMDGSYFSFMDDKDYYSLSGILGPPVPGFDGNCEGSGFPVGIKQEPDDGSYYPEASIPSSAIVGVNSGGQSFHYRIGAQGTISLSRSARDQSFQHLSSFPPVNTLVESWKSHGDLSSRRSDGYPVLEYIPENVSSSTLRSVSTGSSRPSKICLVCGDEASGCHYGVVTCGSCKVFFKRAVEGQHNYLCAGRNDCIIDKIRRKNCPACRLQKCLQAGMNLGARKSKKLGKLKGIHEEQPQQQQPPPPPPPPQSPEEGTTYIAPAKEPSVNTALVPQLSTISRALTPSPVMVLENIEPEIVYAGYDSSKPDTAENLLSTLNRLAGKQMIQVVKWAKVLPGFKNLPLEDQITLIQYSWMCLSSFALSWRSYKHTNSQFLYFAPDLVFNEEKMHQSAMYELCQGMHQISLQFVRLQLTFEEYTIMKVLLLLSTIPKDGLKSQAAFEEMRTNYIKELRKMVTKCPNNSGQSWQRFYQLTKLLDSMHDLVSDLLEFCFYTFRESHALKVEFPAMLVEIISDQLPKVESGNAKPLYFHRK

[22] = target: Fatty acid-binding protein, heart (Homo sapiens, UniProt P05413); experiment: Displacement of 8-anilino-1-naphthalene-sulfonic acid from FABP3 (unknown origin) incubated for 3 mins by fluorescence based assay
Sequence of Fatty acid-binding protein, heart (P05413 whole entry): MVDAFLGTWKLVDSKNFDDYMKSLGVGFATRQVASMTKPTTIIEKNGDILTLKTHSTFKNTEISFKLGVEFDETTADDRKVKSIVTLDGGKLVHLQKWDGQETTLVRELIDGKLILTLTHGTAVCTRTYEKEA

[23] = target: Fatty acid-binding protein, adipocyte (Homo sapiens, UniProt P15090); experiment: Displacement of 8-anilino-1-naphthalene-sulfonic acid from FABP4 (unknown origin) incubated for 3 mins by fluorescence based assay
Sequence of Fatty acid-binding protein, adipocyte (P15090 whole entry): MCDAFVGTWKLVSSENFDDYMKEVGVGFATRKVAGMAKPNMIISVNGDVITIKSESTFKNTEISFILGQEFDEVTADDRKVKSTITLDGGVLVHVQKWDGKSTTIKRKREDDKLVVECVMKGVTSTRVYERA

[24] = Drug concentration in C57BL/6 mouse plasma at 20 mg/kg, po administered for 5 days and measured after 1 hr post final dose by LC-MS analysis; type: ADME, organism-based; settings: time 5 day
[25] = Drug concentration in C57BL/6 mouse liver at 20 mg/kg, po administered for 5 days and measured after 1 hr post final dose by LC-MS analysis; type: ADME, organism-based; settings: time 5 day, read-out: Ct
[26] = Drug concentration in C57BL/6 mouse ileum at 20 mg/kg, po administered for 5 days and measured after 1 hr post final dose by LC-MS analysis; type: ADME, organism-based; settings: time 5 day, read-out: Ct

SMILES: O=C(O)Cc1cccc(N2CCC(OCc3c(-c4c(Cl)cccc4Cl)noc3C3CC3)CC2)c1
- EC50 (Bile acid receptor [1]): > 10 µM

SMILES: O=C(O)CCc1ccc(-c2ccc(OCc3c(-c4c(Cl)cccc4Cl)noc3C3CC3)cc2)cc1
- IC50 [2]: 1.4 µM
- remaining at 1 h [3]: 19.7%
- remaining at 1 h [4]: 26.1%

SMILES: CC[C@H]1[C@@H](O)[C@@H]2[C@H](CC[C@]3(C)[C@@H]([C@H](C)CCC(=O)O)CC[C@@H]23)[C@@]2(C)CC[C@@H](O)C[C@@H]12
- Activity (Mus musculus [5]): Active
- Activity (Mus musculus [6]): Active

SMILES: CCc1c(-c2ccccc2)c(-c2ccccc2)nn1-c1ccccc1-c1cccc(OCC(=O)O)c1
- EC50 (Bile acid receptor [1]): > 10 µM
- EC50 (Bile acid receptor [7]): > 10 µM
- inhibition [8]: 72.7%
- IC50 [2]: 4 µM
- EC50 [9]: > 10 µM
- EC50 [10]: > 10 µM
- EC50 [11]: > 10 µM
- IC50 [12]: > 10 µM
- IC50 [13]: > 10 µM
- IC50 [14]: > 10 µM

SMILES: O=C(O)CCc1cccc(-c2ccc(OCc3c(-c4c(Cl)cccc4Cl)noc3C3CC3)cc2)c1
- IC50 [2]: 3.3 µM

SMILES: O=C(O)COc1ccc(-c2ccc(OCc3c(-c4c(Cl)cccc4Cl)noc3C3CC3)cc2)cc1
- IC50 [2]: 4.2 µM
- remaining at 1 h [3]: 56.8%
- remaining at 1 h [4]: 68.3%

SMILES: O=C(O)Cc1ccc(-c2ccc(OCc3c(-c4c(Cl)cccc4Cl)noc3C3CC3)cc2Cl)cc1
- IC50 [2]: 4.3 µM

SMILES: O=C(O)C1(c2cccc(-c3cccc(OCc4c(-c5c(Cl)cccc5Cl)noc4C4CC4)c3)c2)CC1
- EC50 (Bile acid receptor [1]): > 10 µM

SMILES: CC(C)(Oc1ccc(-c2ccc(OCc3c(-c4c(Cl)cccc4Cl)noc3C3CC3)cc2)cc1)C(=O)O
- IC50 [2]: 5.7 µM

SMILES: O=C(O)Cc1ccc(-c2cccc(OCc3c(-c4c(Cl)cccc4Cl)noc3C3CC3)c2)cc1
- EC50 (Bile acid receptor [1]): > 10 µM
- inhibition [8]: 9.5%

SMILES: CC(C)(C(=O)O)c1cccc(-c2ccc(OCc3c(-c4c(Cl)cccc4Cl)noc3C3CC3)cc2)c1
- EC50 (Bile acid receptor [1]): 0.811 µM
- inhibition [8]: 85.8%
- IC50 [2]: 1.5 µM

SMILES: CC(C)c1onc(-c2c(Cl)cccc2Cl)c1COc1ccc(-c2cccc(C3(C(=O)O)CC3)c2)cc1
- remaining at 1 h [3]: 35.6%
- remaining at 1 h [4]: 41.1%

SMILES: O=C(O)Cc1ccc(-c2ccc(OCc3c(-c4c(Cl)cccc4Cl)noc3C3CC3)cc2)cc1
- EC50 [15]: > 10 µM
- IC50 [2]: 2.9 µM
- remaining at 1 h [3]: 74.3%
- remaining at 1 h [4]: 86.8%
- remaining at 1 h [16]: 69.1%
- remaining at 1 h [17]: 64.5%
- remaining at 1 h [18]: 83.6%
- EC50 [9]: > 10 µM
- EC50 [10]: > 10 µM
- EC50 [19]: > 10 µM
- EC50 [20]: > 10 µM
- EC50 (Progesterone receptor): > 10 µM
- EC50 (Androgen receptor): > 10 µM
- EC50 [21]: > 10 µM
- IC50 [22]: > 30 µM
- IC50 [23]: 5.6 µM
- concentration at 120 h [24]: 2530 ng/mL
- concentration at 120 h [25]: 718 ng/g
- concentration at 120 h [26]: 158 ng/g

SMILES: O=C(O)COc1cccc(-c2ccc(OCc3c(-c4c(Cl)cccc4Cl)noc3C3CC3)cc2)c1
- EC50 (Bile acid receptor [1]): 0.26 µM
- EC50 (Bile acid receptor [7]): 1.85 µM
- inhibition [8]: 67.1%
- IC50 [2]: 3.8 µM

SMILES: CC(C)c1onc(-c2c(Cl)cccc2Cl)c1COc1ccc(/C=C/c2cccc(C(=O)O)c2)c(Cl)c1
- inhibition [8]: 35.2%
- IC50 [2]: 15.3 µM

SMILES: CC(Oc1ccc(-c2ccc(OCc3c(-c4c(Cl)cccc4Cl)noc3C3CC3)cc2)cc1)C(=O)O (centres undefined)
- EC50 (Bile acid receptor [1]): 0.32 µM
- EC50 (Bile acid receptor [7]): 3.51 µM
- inhibition [8]: 69.4%
- IC50 [2]: 3.6 µM
